Results on 20 compounds are retold here after ChEMBL document CHEMBL1201862, “PubChem BioAssay data set” (2004).

Among the targets are Cytochrome P450 2D6 (Homo sapiens, UniProt P10635); Cytochrome P450 2C9 (Homo sapiens, UniProt P11712); Cytochrome P450 3A4 (Homo sapiens, UniProt P08684).
For another series, the target named is Cytochrome P450 2C19 (Homo sapiens, UniProt P33261). The series can be described thus: Cytochrome panel assay with activity outcomes. Panel member name: p450-cyp2c19 Compounds with AC50 equal or less than 10 uM are considered active. The format is functional. The following applies: read-out: AC50.
For a further series, the system named is H9c2. The series can be described thus: cells. The format is functional, cell-based. The following applies: Rattus norvegicus, H9c2, Myocardium.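 Note: confirmatory concentration-response retest of ultra-high-throughput screening hits for modulation of myocardial damage; cell death induced by hydrogen peroxide oxidative stress; compound pretreatment for 60 min then peroxide exposure for 2 h; potency is for protecting the cells against peroxide damage rather than for killing them.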
Series [1] concerns BJ. The series can be described thus: cells. The series is classed as functional, cell-based. To be noted: Homo sapiens.
Series [2] concerns BJ. The series can be described thus: cytotoxicity toward BJ-TERT-LT-ST fibroblasts, dose response, cell-based, RAS-independent, luminescence (AID 1935).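 Note: BJ fibroblasts immortalized with TERT plus LT and ST oncogenes.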 The series is classed as functional. To be noted: Homo sapiens.
Series [3] can be described thus: cytotoxicity toward DRD oncogenic fibroblasts, dose response, cell-based, non-viral oncogenic, luminescence (AID 1934). The format is functional. The following applies: Homo sapiens.
Series [4] relates to BJ. The series can be described thus: cytotoxicity toward BJ-TERT fibroblasts, dose response, cell-based, RAS-independent, luminescence (AID 1933). To be noted: Homo sapiens. The series is classed as functional.
Series [5] can be described thus: Luminescence Cell-Based Dose Confirmation HTS to Identify Inhibitors of Platelet Dense Granule Release. [Related pubchem assays: 1663 (Primary HTS), 1678 (Summary of Project)]. The series is classed as functional.
Series [6] concerns the target Luciferin 4-monooxygenase (Photinus pyralis, UniProt P08659). The series can be described thus: firefly luciferase enzyme inhibitors, dose response, biochemical, luminescence (AID 1891).
Series [7] concerns Streptococcus sp. 'group A'. The series can be described thus: growth inhibition of control SK(-) GAS strain, dose response, counter-screen for streptokinase expression inhibitor project, luminescence, kanamycin, BacTiterGlo, confirmation (AID 1900). The format is functional, organism-based. (A counterscreen serves to expose hits that act by an unwanted route or on another target.)

Another series deals with Streptococcus. The series can be described thus: Group A Streptococcus viability loss, dose response, counter-screen for streptokinase expression inhibitor project, luminescence, BacTiterGlo (AID 1915).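 Note: potency for reduction of bacterial viability or growth.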 The format is functional, organism-based.
A further series deals with T1, Streptokinase A (Streptococcus pyogenes serotype M1, UniProt P10520).
T1 sequence (P10520 whole entry): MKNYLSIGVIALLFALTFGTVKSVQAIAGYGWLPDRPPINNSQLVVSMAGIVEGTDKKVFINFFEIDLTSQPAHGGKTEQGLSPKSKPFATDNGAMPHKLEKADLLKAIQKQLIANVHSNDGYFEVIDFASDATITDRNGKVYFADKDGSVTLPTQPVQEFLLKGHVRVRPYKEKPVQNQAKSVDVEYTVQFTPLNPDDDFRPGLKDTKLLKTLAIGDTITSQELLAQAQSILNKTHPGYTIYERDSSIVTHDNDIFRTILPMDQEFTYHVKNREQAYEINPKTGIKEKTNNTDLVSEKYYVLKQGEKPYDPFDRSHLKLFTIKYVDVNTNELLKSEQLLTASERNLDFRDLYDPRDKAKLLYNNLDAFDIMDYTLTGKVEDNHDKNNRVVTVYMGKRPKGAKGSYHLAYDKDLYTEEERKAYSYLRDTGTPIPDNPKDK
The series can be described thus: S. pyogenes streptokinase expression inhibitors, potency, dose response, plasminogen activation absorbance, OD405 (AID 1914).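 Note: secreted streptokinase activity via plasminogen activation per viability signal from cell pellet.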 The series is classed as functional, Streptococcus pyogenes M1 GAS.

The target of series [8] is T2, Rac GTPase-activating protein 1 (Homo sapiens, UniProt Q9H0H5).
T2 sequence (Q9H0H5 whole entry): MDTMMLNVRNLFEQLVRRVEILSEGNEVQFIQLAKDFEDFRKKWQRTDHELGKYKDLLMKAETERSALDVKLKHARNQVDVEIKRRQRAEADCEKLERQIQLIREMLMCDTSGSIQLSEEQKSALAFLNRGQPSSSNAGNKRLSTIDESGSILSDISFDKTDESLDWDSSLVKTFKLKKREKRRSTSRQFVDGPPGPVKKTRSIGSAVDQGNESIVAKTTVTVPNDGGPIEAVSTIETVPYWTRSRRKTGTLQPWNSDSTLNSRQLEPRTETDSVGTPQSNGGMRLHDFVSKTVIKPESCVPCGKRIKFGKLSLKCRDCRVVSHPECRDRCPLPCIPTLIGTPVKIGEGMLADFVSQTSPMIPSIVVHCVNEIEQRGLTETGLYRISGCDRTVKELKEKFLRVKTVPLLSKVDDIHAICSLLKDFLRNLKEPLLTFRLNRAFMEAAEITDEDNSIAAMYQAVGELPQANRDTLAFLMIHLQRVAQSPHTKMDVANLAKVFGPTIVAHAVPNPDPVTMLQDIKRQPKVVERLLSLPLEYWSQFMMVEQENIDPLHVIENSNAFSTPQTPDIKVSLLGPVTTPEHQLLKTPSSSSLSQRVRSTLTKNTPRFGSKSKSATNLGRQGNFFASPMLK
The series can be described thus: MgcRacGAP GTPase-activating activity inhibitors, confirmation, biochemical, ADP Hunter fluorescence, primary and confirmatory (AID 624330). The format is functional.

Another series has as its system Vero. The series can be described thus: cells. The format is functional. To be noted: Chlorocebus sabaeus.
Series [9] is described as follows: Luminescence Cell-Based Dose Response HTS to Identify Inhibitors of 5'UTR Stem-Loop Driven Prion Protein mRNA Translation in H4 Neuroglioblastoma Cells. [Related pubchem assays: 1827 (Project Summary), 1813 (Primary HTS)]. The format is functional.
Series [10] is described as follows: inhibitors of firefly luciferase expression or activity, dose response, H4 neuroglioma cells, luminescence (AID 1990). The series is classed as functional, cell-based.

For orientation: AC50 means the concentration giving half of the maximal activity seen. In general, IC50 refers to the point on the concentration scale where inhibition reaches its midpoint. The EC50 is the concentration giving half of the maximal effect. A word on the CC50: it is the concentration that lowers cell viability or growth by half.

Structures are written as SMILES. Activity calls are given as the source filed them.

Cytochrome P450 2C9, sequence (P11712 whole entry): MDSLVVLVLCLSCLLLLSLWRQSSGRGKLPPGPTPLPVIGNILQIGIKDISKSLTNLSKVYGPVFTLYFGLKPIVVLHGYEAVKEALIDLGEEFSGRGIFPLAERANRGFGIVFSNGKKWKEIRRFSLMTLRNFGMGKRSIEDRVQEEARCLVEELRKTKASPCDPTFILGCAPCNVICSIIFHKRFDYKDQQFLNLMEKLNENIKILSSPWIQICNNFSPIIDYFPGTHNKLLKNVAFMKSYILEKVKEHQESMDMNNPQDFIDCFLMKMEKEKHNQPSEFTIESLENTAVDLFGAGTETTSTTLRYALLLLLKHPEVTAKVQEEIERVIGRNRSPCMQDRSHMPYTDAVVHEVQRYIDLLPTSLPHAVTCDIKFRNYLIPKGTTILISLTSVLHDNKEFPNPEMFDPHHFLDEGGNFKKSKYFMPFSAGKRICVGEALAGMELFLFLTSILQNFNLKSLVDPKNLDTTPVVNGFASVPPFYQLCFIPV
Cytochrome P450 2C19, sequence (P33261 whole entry): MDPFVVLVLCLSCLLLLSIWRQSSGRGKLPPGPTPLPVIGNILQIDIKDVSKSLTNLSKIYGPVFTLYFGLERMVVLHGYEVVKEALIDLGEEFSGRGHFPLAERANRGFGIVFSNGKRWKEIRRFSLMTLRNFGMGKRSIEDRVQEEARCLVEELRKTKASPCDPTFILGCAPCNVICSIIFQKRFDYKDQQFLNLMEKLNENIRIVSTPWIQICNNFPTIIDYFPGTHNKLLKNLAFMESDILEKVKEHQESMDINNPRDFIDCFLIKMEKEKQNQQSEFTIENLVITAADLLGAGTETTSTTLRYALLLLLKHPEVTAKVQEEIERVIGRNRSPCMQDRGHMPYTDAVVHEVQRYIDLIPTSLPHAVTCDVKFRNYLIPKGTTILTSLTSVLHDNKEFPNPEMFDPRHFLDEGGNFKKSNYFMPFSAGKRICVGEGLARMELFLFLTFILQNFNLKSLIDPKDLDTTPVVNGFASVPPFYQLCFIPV
Cytochrome P450 2D6, sequence (P10635 whole entry): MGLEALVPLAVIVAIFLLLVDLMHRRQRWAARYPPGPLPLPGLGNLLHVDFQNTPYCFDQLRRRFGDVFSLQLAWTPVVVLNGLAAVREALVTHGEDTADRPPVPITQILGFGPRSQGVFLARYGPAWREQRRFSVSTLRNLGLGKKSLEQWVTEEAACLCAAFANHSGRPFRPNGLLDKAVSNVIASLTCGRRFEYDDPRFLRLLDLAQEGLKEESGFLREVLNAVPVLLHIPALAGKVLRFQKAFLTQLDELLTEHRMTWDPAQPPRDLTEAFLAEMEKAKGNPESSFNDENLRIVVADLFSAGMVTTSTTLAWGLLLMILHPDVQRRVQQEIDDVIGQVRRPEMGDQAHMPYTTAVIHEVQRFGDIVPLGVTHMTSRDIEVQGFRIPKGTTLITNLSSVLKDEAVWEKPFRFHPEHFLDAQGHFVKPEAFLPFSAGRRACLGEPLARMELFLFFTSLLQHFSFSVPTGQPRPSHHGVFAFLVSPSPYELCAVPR
Cytochrome P450 3A4, sequence (P08684 whole entry): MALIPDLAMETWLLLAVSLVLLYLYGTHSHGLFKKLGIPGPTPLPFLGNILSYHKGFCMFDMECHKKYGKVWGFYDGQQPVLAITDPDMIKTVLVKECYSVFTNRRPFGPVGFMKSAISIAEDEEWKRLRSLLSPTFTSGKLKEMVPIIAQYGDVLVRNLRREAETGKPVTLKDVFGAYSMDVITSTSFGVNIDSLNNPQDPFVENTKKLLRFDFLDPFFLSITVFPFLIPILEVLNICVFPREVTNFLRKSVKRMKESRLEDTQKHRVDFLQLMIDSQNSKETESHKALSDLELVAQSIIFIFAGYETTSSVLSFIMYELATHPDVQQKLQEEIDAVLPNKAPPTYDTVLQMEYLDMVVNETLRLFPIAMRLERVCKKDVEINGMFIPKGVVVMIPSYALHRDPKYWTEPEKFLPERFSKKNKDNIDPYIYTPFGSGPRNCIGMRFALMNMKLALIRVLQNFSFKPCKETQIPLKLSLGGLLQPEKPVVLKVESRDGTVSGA
Luciferin 4-monooxygenase, sequence (P08659 whole entry): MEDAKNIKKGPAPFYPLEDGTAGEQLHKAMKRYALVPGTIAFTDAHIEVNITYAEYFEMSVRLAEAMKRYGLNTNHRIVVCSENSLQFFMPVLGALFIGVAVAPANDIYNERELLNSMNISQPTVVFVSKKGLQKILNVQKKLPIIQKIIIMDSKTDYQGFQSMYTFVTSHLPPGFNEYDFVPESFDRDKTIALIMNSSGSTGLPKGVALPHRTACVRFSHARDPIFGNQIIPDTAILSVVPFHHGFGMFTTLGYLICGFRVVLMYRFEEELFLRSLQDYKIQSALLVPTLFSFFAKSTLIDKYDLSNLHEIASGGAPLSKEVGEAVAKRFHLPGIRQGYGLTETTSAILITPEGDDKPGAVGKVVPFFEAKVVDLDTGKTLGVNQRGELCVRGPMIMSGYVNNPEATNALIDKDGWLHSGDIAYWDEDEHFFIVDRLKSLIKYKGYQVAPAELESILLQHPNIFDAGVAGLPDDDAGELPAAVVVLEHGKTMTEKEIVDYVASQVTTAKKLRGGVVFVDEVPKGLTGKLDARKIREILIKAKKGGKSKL

On to `COc1cc(/C=C(\C#N)c2nc3c(s2)CC(C)CC3)ccc1O` (centres undefined), for which the AC50 on Cytochrome P450 2C19 was 39.8 µM (inconclusive); on Cytochrome P450 2D6, 28.2 µM (inconclusive); on Cytochrome P450 2C9, “inconclusive”.
For `CC(OC(=O)c1cc(-c2cccnc2)nc2ccccc12)C(=O)Nc1ccc2ccccc2c1` (centres undefined), in the series on H9c2, the IC50 is > 79 µM (inactive).
As for `COc1cc(OC)cc(C(=O)Nc2ccc(N3CCN(C(=O)c4cccs4)CC3)cc2)c1`, the EC50 in the series on BJ [1] was 61.2 µM (active); in the series on BJ [2] it was > 150 µM (inconclusive); in series [3], 19.5 µM (active); with BJ [4], 14.9 µM (active).
`COc1cccc(NC(=O)c2oc3ccc(S(=O)(=O)N4CCOCC4)cc3c2C)c1`: in the series with H9c2, the IC50 was > 79 µM (inactive).
Regarding `Nc1cc2sc(-c3ccc(C(=O)O)cc3)nc2cc1Cl`, the EC50 in the series on BJ [1] was 17 µM (active); in series [5], 1.32 µM (active); in the series with BJ [2] it was > 150 µM (inconclusive); in [3], 15.4 µM (active); in the series on BJ [4] it was 20.4 µM (active); in series [6], 0.441 µM (active).
On to `O=C(CC(C(=O)c1ccccc1)c1ccccc1)c1ccccc1` (centres undefined), for which the IC50 in the series on H9c2 was > 79 µM (inactive).
For `Cn1c2ccccc2c2cc(C(=O)N3CCOCC3)sc21`, the AC50 at Cytochrome P450 2C19 was 39.8 µM (inconclusive); on Cytochrome P450 3A4, 28.2 µM (inconclusive); on Cytochrome P450 2C9, “inconclusive”.
For `Cc1ccc(OCCOC(=O)CCc2nc(O)c3ccccc3n2)cc1`, the 50% inhibitory concentration (IC50) with H9c2 was 10.6 µM (active).
Consider `O=C(NN/C=C1\C(=O)N(c2ccccc2Cl)C(=O)c2ccccc21)C1COc2ccccc2O1` (centres undefined), for which the figures for the half-maximal effective concentration (EC50) (in [7]; in the series with Streptococcus; at Streptokinase A) were 6.64 µM (active), 7.4 µM (active) and > 150 µM (not active), respectively. In the series with H9c2, the half-maximal inhibitory concentration (IC50) was 17.2 µM (active).
As for `COc1cccc(Oc2cnc(N)nc2-c2ccc(OC)cc2O)c1`, the EC50 with BJ [1] was 27.6 µM (active); in the series with BJ [2], 67.1 µM (active); in series [3], 10.9 µM (active); in the series on BJ [4] it was 17.9 µM (inconclusive).
Regarding `OC1CCN(c2c3c(nc4cc(-c5cccc(F)c5)nn24)CCCC3)CC1`, the IC50 with H9c2 is > 79 µM (inactive).
Take `COc1ccc(NCc2cc3ccccc3nc2O)cc1`: the IC50 in [8] is 94.7 µM (active); with H9c2 it was > 79 µM (inactive).
On to `CCn1c2ccccc2c2nc3cc(OC)c(OC)cc3nc21`, for which the IC50 with H9c2 is > 79 µM (inactive).
As to `O=S(=O)(c1ccccc1)N1CCC2(CC1)CN(c1ccncc1)C2`, the values for the half-maximal activity concentration (AC50) on Cytochrome P450 3A4 and at Cytochrome P450 2C9 were 39.8 µM (inconclusive) and “inconclusive”, respectively.
Turning to `COCCCNCCCCOc1c(Cl)cc(C)cc1Br.O=C(O)C(=O)O`, in [8], the concentration for half-maximal inhibition (IC50) was 64.1 µM (active). The AC50 entry at Cytochrome P450 2C9 is reported as “inconclusive”.
Turning to `O=C(N/N=C/c1ccc(Cl)cc1)c1[nH]nc2c1CCCC2`, the CC50 in the series with Vero was 2.59 µM (active). Also, the concentration for a half-maximal effect (EC50) with BJ [1] was 39.2 µM (active); in the series on BJ [2], 0.669 µM (active); in series [3], 0.657 µM (active); in series [9], > 120 µM (not active); in series [10], 8.55 µM (inconclusive).
Regarding `O=[N+]([O-])c1ccc(Cl)c(/C=N/N2CCN(Cc3ccccc3)CC2)c1`, the figures for the AC50 on Cytochrome P450 2D6 and at Cytochrome P450 2C9 were 11.2 µM (inconclusive) and “inconclusive”, respectively.
On to `CCOC(=O)c1oc2ccc(S(=O)(=O)n3nc(-c4ccc(Cl)cc4)cc3N)cc2c1C`, for which the half-maximal cytotoxic concentration (CC50) in the series with Vero is > 25 µM (active).
Take `Oc1nc(N2CCN(c3ccccc3)CC2)nc2c1CCCC2`: the IC50 in the series on H9c2 was > 79 µM (inactive).
As for `CCCCCCCCCCCCCCCC(=O)NC[C@@H](COP(=O)([O-])OCC[N+](C)(C)C)OCC`, the concentration at half-maximal activity (AC50) on Cytochrome P450 2C19 is 39.8 µM (inconclusive); on Cytochrome P450 2D6, 31.6 µM (inconclusive); at Cytochrome P450 2C9, “inconclusive”.
